Results published in ChEMBL document CHEMBL1201862, “PubChem BioAssay data set” (2004).
Calls of active or inactive are those of the source.

How the values were obtained:
[1] = molecular target: Phospholipase A2 (Homo sapiens, UniProt P04054); assay type: functional;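 note: confirmatory dose-response counterscreen on phospholipase A2, testing hits that came from an ultra-high-throughput screen for ATG4B inhibitors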
[2] = alpha-synuclein stem-loop luciferase translation blockers – H4 neuroglioma cells, luminescence, confirmation (AID 1988); assay type: functional, cell-based
[3] = molecular target: T1, Protein Tat (Human immunodeficiency virus type 1 group M subtype B (isolate HXB2)(HIV-1), UniProt P04608); assay type: functional;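 note: tat binding to TAR RNA read out by fluorescence polarization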
T1 sequence (P04608 whole entry): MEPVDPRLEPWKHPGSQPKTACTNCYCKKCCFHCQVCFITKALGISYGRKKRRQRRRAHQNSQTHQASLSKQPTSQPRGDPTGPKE

[4] = molecular target: T2, Cysteine protease ATG4B (Homo sapiens, UniProt Q9Y4P1); assay type: functional;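 note: Fluorescence-based dose-response confirmation assay measuring inhibition of ATG4B activity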
T2 sequence (Q9Y4P1 whole entry): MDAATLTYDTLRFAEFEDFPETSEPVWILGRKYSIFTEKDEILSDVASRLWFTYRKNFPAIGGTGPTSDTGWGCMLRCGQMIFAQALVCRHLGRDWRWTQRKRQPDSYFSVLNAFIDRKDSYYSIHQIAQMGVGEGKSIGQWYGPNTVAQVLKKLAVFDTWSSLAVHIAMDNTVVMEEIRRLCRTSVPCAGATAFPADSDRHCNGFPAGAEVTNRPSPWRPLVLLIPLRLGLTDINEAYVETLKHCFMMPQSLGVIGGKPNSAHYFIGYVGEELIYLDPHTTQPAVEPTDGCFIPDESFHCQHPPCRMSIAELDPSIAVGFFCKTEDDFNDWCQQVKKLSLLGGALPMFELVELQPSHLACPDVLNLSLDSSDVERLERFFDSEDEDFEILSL

[5] = Luminescence Cell-Based Dose Response HTS to Identify Inhibitors of 5'UTR Stem-Loop Driven Prion Protein mRNA Translation in H4 Neuroglioblastoma Cells. [Related pubchem assays: 1827 (Project Summary), 1813 (Primary HTS)]; assay type: functional
[6] = luciferase reporter signal suppression in cells – H4 neuroglioma cells, luminescence, dose response (AID 1990); assay type: functional, cell-based
[7] = HIV-1 Vif–A3G interaction blockers – biochemical, TR-FRET, GST-Vif 1-94, biotin-A3G peptide, dose response retest, primary screen (AID 1117319); assay type: functional;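 note: TR-FRET signal of purified GST-Vif binding a biotinylated A3G peptide; inhibitors lower the FRET signal by blocking Vif and A3G binding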
[8] = molecular target: T3, Nuclear receptor subfamily 0 group B member 1 (Homo sapiens, UniProt P51843); assay: Luminescence-based cell-based high throughput dose response assay for inhibitors of the orphan nuclear receptor subfamily 0, group B, member 1 (DAX1; NR0B1). [Related pubchem assays (depositor defined):AID504766, AID504790]; assay type: functional
T3 sequence (P51843 whole entry): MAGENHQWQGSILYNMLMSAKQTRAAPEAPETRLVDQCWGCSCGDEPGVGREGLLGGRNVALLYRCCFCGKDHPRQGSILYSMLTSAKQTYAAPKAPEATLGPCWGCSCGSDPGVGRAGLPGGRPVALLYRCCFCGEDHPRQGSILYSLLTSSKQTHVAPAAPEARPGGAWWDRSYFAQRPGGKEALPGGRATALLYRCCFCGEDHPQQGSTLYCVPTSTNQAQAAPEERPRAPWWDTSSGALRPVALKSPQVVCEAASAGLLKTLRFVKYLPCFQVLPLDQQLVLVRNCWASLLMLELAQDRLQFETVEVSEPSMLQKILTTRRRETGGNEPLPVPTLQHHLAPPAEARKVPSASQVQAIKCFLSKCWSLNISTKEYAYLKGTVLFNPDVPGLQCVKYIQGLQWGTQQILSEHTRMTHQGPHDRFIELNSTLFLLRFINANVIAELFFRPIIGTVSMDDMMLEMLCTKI

[9] = system: HEK293; assay: cells; assay type: functional, cell-based; conditions: Homo sapiens
[10] = system: HEK293; assay: cells; assay type: functional, cell-based; conditions: Homo sapiens; remark: listed apart in the source
[11] = system: HEK293; assay: cells; assay type: functional, cell-based; conditions: Homo sapiens; remark: listed apart in the source
[12] = system: HEK293; assay: NOD2 signaling inhibitors in MDP-stimulated cells, cell-based, uHTS, luminescence (AID 2001); assay type: functional; conditions: Homo sapiens
[13] = system: HEK293; assay: cells; assay type: functional, cell-based; conditions: Homo sapiens; remark: listed apart in the source
[14] = molecular target: Nucleotide-binding oligomerization domain-containing protein 2 (Homo sapiens, UniProt Q9HC29); assay: inhibition of NOD2-driven NF-kB reporter – cell-based, luminescence, uHTS, HEK293 (AID 1566); assay type: functional
[15] = system: HEK293; assay: inhibition of NOD1-driven NF-kB reporter – cell-based, luminescence, uHTS, primary screen (AID 1578); assay type: functional; conditions: Homo sapiens
[16] = system: Escherichia coli; assay: microbe, parasite or virus in culture
[17] = system: CHO; assay: CHO cell viability loss, potency – luminescence, cytotoxicity control for TLR9-MyD88 binding inhibitor project, dose response (AID 588339); assay type: functional, cell-based, hamster; conditions: Cricetulus griseus;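 note: CHO cells stably coexpressing TLR9 and MyD88 fusions from primary screen; compound exposure lasted 48 hours before viability readout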

Chain of Phospholipase A2 (P04054 whole entry): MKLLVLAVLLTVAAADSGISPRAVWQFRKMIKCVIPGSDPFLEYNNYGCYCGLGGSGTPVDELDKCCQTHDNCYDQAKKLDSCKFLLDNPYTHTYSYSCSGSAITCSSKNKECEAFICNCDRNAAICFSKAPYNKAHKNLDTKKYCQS
Chain of Nucleotide-binding oligomerization domain-containing protein 2 (Q9HC29 whole entry, the tested form may be a part): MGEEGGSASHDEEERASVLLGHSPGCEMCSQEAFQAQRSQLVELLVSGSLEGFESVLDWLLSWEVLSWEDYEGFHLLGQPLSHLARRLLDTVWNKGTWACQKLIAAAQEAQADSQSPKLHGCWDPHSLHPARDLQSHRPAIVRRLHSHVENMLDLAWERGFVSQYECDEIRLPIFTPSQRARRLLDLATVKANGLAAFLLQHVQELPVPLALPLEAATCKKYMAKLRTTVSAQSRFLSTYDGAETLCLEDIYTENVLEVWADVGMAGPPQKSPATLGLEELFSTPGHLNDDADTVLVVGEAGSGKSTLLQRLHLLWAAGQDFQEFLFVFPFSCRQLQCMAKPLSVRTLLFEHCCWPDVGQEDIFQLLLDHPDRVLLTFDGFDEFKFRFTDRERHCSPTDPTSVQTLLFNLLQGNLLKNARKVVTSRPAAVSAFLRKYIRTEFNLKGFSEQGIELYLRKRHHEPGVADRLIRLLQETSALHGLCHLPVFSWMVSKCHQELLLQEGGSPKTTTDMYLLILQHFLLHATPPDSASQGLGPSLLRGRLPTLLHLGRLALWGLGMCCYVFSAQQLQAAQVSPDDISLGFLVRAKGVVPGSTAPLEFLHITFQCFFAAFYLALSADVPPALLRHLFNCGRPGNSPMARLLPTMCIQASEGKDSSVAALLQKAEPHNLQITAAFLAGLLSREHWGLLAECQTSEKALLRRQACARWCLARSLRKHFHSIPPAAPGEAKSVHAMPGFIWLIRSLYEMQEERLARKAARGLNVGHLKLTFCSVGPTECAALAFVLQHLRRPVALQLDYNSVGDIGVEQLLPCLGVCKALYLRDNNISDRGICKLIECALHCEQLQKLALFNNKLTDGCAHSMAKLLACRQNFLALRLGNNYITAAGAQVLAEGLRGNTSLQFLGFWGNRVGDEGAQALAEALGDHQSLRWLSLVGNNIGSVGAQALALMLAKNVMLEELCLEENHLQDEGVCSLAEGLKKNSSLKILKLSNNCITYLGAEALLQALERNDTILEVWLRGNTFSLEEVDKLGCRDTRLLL

With `COc1ccc(-c2ccc(C#N)c(SCC(=O)Nc3sc4c(c3C#N)CCC4)n2)cc1OC` the IC50 [1] was 4.06 µM (active), the EC50 [2] was 11.1 µM (active) and the IC50 [3] was > 100 µM (active). The IC50 [4] was 5.44 µM (active), the EC50 [5] was > 120 µM (not active) and the EC50 [6] was 13.9 µM (active). The IC50 [7] was > 100 µM (active).
In the case of `O=C(COC(=O)CN1C(=O)NC2(CCCC2)C1=O)Nc1ccccc1C(F)(F)F`, the IC50 [8] is reported as > 67.5 µM (inactive) and the IC50 [9] is reported as > 67.5 µM (inactive).
With `O=C(CCc1ccccc1)NC(=S)Nc1ccccc1Br` the IC50 [8] was > 67.5 µM (inactive) and the IC50 [9] was > 67.5 µM (inactive).
With `Cc1ccc(CNc2ncnc(N)c2[N+](=O)[O-])cc1` the IC50 [10] was > 20 µM (inactive), the IC50 [11] was 1.83 µM (active) and the IC50 [12] was 4.01 µM (active). The IC50 [13] was > 20 µM (inactive), the EC50 [14] was > 20 µM (inactive) and the EC50 [15] was 19 µM (active).
In the case of `O=C(Nc1cc(S(=O)(=O)N2CCOCC2)ccc1N1CCCC1)c1ccc(Cl)cc1`, the AC50 [16] is reported as 25.2 µM (active).
With `CCCCNC(=O)COC(=O)c1c2c(nc3ccccc13)/C(=C/c1cccs1)CC2` the IC50 [17] was > 49.7 µM (inactive).
